The values that follow come from patent publication US20050227249A1, “Polymorphisms in the human MDR-1 gene and their use in diagnostic and therapeutic applications” (priority 1999, published 2005).

Structures are written as SMILES. “And” between values parts separate entries of the source, which are not always exact repeats. Equal values may be shown once.

Data set [1] in a line: Phenytoin blood levels in patients by 2C9/2C19 and MDR-1 exon 26 (C3435T) genotype. Format: in vivo, human.
Data set [2] is described as follows: digoxin maximum plasma concentration (Cmax) at steady state after oral application, by MDR-1 exon 26 genotype. Format: in vivo, human. Particulars: 7 T/T vs 7 C/C volunteers, T/T higher, p=0.006.
Procedure: For a further validation of the correlation of MDR-1 genotype with intestinal digoxin uptake, additional volunteers of another clinical study at the University Medical Center, Charite in Berlin that addresses blood levels of digoxin after oral application (without rifampin induction and PGP protein determination, Johne et al. (1999), Clin.
In this study, maximum plasma concentrations (Cmax) were evaluated during steady state conditions of digoxin.
Data set [3] has as its target T1, MDR-1 (Homo sapiens, UniProt P08183). As to the kind of experiment: clinical. Details: from tissue; host or cells: colon (intestine) of human probands, in vivo. Particulars: in vivo, po, 1 mg, digoxin concentration in blood (Dig AUC). From the text:
To identify potential direct correlations of MDR-1 polymorphisms with clinical relevant phenotypes in humans, probands from a study at the Dr. Margarete Fischer-Bosch-Institut for Clinical Pharmacology in Stuttgart, were subjected to the determination of MDR-1 polymorphisms as described in examples 2-4. The expression levels of MDR-1 in the colon and liver of these patients was also estimated by established immunohistochemical detection of the MDR-1 protein. In the proband population, in addition to measurements of the expression levels of MDR-1 in the colon, measurements of MDR-1 upon induction of the gene by rifampicine were performed. Also, the in vivo activity of MDR-1 under noninduced and rifampicine induced conditions was determined by measuring the blood concentrations of orally administered digoxin (1 mg), which is a known MDR-1 substrate and whose blood concentration also depends on the MDR-1 activity in the colon. The results of the MDR-1 measurements, rifampicine induction experiments and digoxin-experiments, as well as results from the MDR-1 polymorphism detection analysis in the proband population show correlations between MDR-1 gene expression and MDR-1 in vivo activity with certain polymorphisms. […]

Data set [4] concerns the target T1, MDR-1. As to the kind of experiment: clinical. Set-up: The expression levels of MDR-1 in the colon and liver of these patients was also estimated by established immunohistochemical detection; from tissue; host or cells: colon (intestine) of human probands, in vivo. Particulars: in vivo. From the text: To identify potential direct correlations of MDR-1 polymorphisms with clinical relevant phenotypes in humans, probands from a study at the Dr. Margarete Fischer-Bosch-Institut for Clinical Pharmacology in Stuttgart, were subjected to the determination of MDR-1 polymorphisms as described in examples 2-4. The expression levels of MDR-1 in the colon and liver of these patients was also estimated by established immunohistochemical detection of the MDR-1 protein. In the proband population, in addition to measurements of the expression levels of MDR-1 in the colon, measurements of MDR-1 upon induction of the gene by rifampicine were performed. Also, the in vivo activity of MDR-1 under noninduced and rifampicine induced conditions was determined by measuring the blood concentrations of orally administered digoxin (1 mg), which is a known MDR-1 substrate and whose blood concentration also depends on the MDR-1 activity in the colon. The results of the MDR-1 measurements, rifampicine induction experiments and digoxin-experiments, as well as results from the MDR-1 polymorphism detection analysis in the proband population show correlations between MDR-1 gene expression and MDR-1 in vivo activity with certain polymorphisms.
This was done by measuring the blood concentrations of orally administered digoxin which is a known MDR-1 substrate and whose blood concentration also depends on the MDR-1 activity in the colon. […] The probands that harbor the T allele (correlates with weaker MDR-1 expression, see Tab. 4), contain higher blood levels of digoxin compared to samples which have only the corresponding homozygous C-allele. […] This is totally consistent with the function of MDR-1 in the colon, i.e. re-transport and elimination of substrates from the uptaking cells into the lumen of the colon. […] The difference of the digoxin blood levels between these individuals was more than 4-fold.

Data set [5] relates to MDR-1. Put plainly: MDR-1 (PGP) protein levels in probands upon induction by rifampicine, immunohistochemical detection. Format: in vivo, human. The settings on record: for PGP concentration, mean / PGP concentration: rifampicine-induced probands; for PGP concentration: individual probands. The protocol: The expression levels of MDR-1 in the colon and liver of these patients was also estimated by established immunohistochemical detection of the MDR-1 protein. In the proband population, in addition to measurements of the expression levels of MDR-1 in the colon, measurements of MDR-1 upon induction of the gene by rifampicine were performed. Also, the in vivo activity of MDR-1 under noninduced and rifampicine induced conditions was determined by measuring the blood concentrations of orally administered digoxin (1 mg), which is a known MDR-1 substrate and whose blood concentration also depends on the MDR-1 activity in the colon.

T1 sequence (P08183 whole entry): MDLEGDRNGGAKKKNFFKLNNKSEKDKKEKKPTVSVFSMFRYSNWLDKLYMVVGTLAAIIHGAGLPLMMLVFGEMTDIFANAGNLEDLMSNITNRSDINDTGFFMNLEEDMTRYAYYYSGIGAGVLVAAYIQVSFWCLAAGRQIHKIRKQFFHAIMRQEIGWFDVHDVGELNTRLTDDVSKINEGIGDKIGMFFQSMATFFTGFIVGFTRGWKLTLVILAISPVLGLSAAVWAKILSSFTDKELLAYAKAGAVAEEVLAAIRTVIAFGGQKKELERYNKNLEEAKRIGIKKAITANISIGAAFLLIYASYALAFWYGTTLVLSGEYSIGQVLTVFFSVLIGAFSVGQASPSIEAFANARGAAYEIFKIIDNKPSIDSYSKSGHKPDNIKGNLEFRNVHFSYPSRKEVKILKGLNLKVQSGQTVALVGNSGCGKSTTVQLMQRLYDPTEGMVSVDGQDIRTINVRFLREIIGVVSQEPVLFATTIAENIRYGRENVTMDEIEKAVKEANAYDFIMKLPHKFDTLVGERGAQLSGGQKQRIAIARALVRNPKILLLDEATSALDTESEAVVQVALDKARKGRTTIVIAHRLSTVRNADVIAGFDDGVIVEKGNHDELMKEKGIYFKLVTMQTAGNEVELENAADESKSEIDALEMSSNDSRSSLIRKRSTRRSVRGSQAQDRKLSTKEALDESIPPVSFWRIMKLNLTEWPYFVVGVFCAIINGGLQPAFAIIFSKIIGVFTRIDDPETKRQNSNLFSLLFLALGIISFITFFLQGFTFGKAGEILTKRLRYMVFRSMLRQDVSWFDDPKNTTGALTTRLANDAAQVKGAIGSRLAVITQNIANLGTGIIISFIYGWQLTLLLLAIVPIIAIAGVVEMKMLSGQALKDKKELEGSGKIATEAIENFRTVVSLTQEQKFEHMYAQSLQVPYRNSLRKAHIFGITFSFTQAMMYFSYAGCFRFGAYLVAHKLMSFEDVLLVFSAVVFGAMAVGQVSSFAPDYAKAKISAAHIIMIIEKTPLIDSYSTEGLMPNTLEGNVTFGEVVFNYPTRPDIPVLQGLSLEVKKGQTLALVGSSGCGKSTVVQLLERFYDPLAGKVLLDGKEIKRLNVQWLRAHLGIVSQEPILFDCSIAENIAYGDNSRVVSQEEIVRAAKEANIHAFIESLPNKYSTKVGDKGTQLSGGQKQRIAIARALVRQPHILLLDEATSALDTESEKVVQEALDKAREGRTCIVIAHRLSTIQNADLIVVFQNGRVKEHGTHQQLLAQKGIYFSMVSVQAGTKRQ

Consider `O=C1NC(=O)C(c2ccccc2)(c2ccccc2)N1` [Phenytoin], for which the “highest blood concentration, increase compared to the normal population” value in data set [1] (2C9 deficient patient with low PGP (T/T) genotype, within a group of 100 patients) is “about twofold”. Further, the Phenytoin blood levels result in data set [1] (2C9 normal metabolizers, MDR-1 genotype CC and CT (intestinal PGP high/medium)) was “normal”; in data set [1] (2C9 normal metabolizers, MDR-1 genotype TT (intestinal PGP low)) it was “normal”; in data set [1] (2C9 weak and/or deficient metabolizers, MDR-1 genotype CC and CT (intestinal PGP high/medium)) it was “high”; in data set [1] (2C9 weak and/or deficient metabolizers, MDR-1 genotype TT (intestinal PGP low)), “VERY HIGH”.
In the case of `C[C@H]1O[C@@H](O[C@H]2[C@@H](O)C[C@H](O[C@H]3[C@@H](O)C[C@H](O[C@H]4CC[C@@]5(C)[C@H](CC[C@@H]6[C@@H]5C[C@@H](O)[C@]5(C)[C@@H](C7=CC(=O)OC7)CC[C@]65O)C4)O[C@@H]3C)O[C@@H]2C)C[C@H](O)[C@@H]1O` [digoxin], in data set [2], the “mean difference in digoxin Cmax between T/T and C/C groups” value was found to be 38%. In addition, the exposure (AUC) on MDR-1 [3] came to 63.6 ng·h/mL. Further, at MDR-1 [4], the “difference of the digoxin blood levels between homozygous T and homozygous C proband” value was “more than 4 fold”; the “highest rif-induced dig blood level” value is listed as 12.3; the “lowest rif-induced dig blood level” value is reported as 57.3.
For `CO[C@H]1/C=C/O[C@@]2(C)Oc3c(C)c(O)c4c(O)c(c(/C=N/N5CCN(C)CC5)c(O)c4c3C2=O)NC(=O)/C(C)=C\C=C\[C@H](C)[C@H](O)[C@@H](C)[C@@H](O)[C@@H](C)[C@H](OC(C)=O)[C@@H]1C` [rifampicine], the “highest rif-induced activity (PGP concentration)” value with MDR-1 [5] (proband homozygous C/C at position 176) is 1264.9. Besides, in the data set with MDR-1 [5] (proband homozygous T/T at position 176), the “lowest rif-induced activity (PGP concentration)” value was determined as 142.1. The “difference of induced MDR-1 expression levels between homozygous C and homozygous T proband” value in the data set with MDR-1 [5] (rifampicin-induced, highest (C/C) vs lowest (T/T) proband) turned out to be 9 fold. Further, the “PGP concentration, mean” value with MDR-1 [5] (T-allele absent (C/C only)) came to 924 relative units; in the data set on MDR-1 [5] (T-allele present (T/T and T/C)) it was 587 relative units. Also, the PGP concentration was 423 relative units and 1264 relative units and 1086 relative units in the data set on MDR-1 [5] (T-allele absent (C/C only)); 142 relative units and 1085 relative units and 520 relative units and 601 relative units in the data set with MDR-1 [5] (T-allele present (T/T and T/C) at position 176 in exon 26).

The term AUC denotes concentration integrated over time. A high value points to high exposure.
